From patent US11332459B2 (TEIJIN PHARMA LIMITED, priority 2017, dated 2022)

These compounds were tested against T1, human TRPC6 (Homo sapiens, UniProt Q9Y210) (assay: TRPC6 calcium flux assay (FLIPR, OAG-stimulated calcium influx)). Conditions: HEK293 cells stably transfected with human TRPC6, read-out: hTRPC6 Potency.
T1 construct: expressed in transfected cells
T1 sequence (Q9Y210 1-931): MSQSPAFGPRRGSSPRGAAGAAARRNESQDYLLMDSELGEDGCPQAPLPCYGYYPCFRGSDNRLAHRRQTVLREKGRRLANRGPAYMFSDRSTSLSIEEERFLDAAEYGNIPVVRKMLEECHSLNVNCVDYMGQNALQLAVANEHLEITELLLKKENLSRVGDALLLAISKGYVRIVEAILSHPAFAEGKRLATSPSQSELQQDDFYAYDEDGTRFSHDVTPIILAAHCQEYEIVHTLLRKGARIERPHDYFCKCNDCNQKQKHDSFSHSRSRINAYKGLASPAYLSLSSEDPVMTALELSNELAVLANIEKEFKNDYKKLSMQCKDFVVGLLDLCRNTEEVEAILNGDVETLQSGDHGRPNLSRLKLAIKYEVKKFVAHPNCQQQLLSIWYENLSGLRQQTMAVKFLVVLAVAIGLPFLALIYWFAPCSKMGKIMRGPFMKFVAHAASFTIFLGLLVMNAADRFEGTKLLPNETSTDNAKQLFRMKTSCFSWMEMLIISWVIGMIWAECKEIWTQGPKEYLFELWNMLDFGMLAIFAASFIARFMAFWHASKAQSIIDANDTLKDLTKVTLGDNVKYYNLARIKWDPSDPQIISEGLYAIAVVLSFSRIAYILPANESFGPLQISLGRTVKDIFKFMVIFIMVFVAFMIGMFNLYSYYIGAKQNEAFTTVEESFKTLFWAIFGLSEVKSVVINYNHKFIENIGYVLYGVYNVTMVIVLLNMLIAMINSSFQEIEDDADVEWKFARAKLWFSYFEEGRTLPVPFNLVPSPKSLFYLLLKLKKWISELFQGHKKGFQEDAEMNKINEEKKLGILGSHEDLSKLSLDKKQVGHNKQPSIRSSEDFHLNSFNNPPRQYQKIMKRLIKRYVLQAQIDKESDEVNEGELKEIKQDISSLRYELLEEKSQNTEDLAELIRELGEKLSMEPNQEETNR
Type: cell-based
Outline: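 IC50 derived by plotting background-corrected peak fluorescence (180 s window, normalized to OAG-triggered signal vs buffer) against dose. Stable human TRPC6 HEK293 line was dye-loaded, exposed to compound 25 min, then challenged with 50 uM final OAG in 2 mM Ca2+ HEPES buffer pH 7.2, 0.5% DMSO.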
For `CN(CC#N)C(=O)Cn1c(N2CC[C@@H](F)[C@H](N)C2)nc2cc(F)c(F)cc21` [Example 615, 2-(2-((3R,4R)-3-amino-4-fluoropiperidin-1-yl)-5,6-difluoro-1H-benzo[d]imidazol-1-yl)-N-(cyanomethyl)-N-methylacetamide], the IC50 was 28.5 nM.
For `C[C@@H](c1ccc(C#N)cn1)n1c(N2CC[C@H]3OCCN[C@@H]3C2)nc2c(F)cc(F)cc21` [Example 270, 6-((1S)-1-(4,6-difluoro-2-((4aR,8aR)-hexahydro-2H-pyrido[4,3-b][1,4]oxazin-6(5H)-yl)-1H-benzimidazol-1-yl)ethyl)-3-pyridinecarbonitrile], the IC50 was 51.5 nM.
Compound `N#CCOc1ccc(Cn2c(N3CCC[C@@H](N)C3)nc3ccccc32)cc1` [Example 384, (R)-2-(4-((2-(3-aminopiperidin-1-yl)-1H-benzo[d]imidazol-1-yl)methyl)phenoxy) acetonitrile] has an IC50 of 16000 nM.
For `CC1CN(c2nc3ccc(F)cc3n2CC(=O)N(C)CC(F)(F)F)CC1N` (stereo not shown) [Example 480, 2-(2-(3-amino-4-methylpyrrolidin-1-yl)-6-fluoro-1H-benzo[d]imidazol-1-yl)-N-methyl-N-(2,2,2-trifluoroethyl)acetamide], the IC50 was 1200 nM.
With `CN(C)C(=O)Cn1c(N2CC[C@@H](F)[C@H](N)C2)nc2cc(F)ccc21` [Example 576, 2-(2-((3R,4R)-3-amino-4-fluoropiperidin-1-yl)-5-fluoro-1H-benzo[d]imidazol-1-yl)-N,N-dimethylacetamide] the IC50 was 169 nM.
With `C[C@@H](c1cc(Cl)ccc1Cl)n1c(N2CC[C@@H](F)[C@H](N)C2)nc2cc(F)c(F)cc21` [Example 329, (3R,4R)-1-(1-((1S)-1-(2,5-dichlorophenyl)ethyl)-5,6-difluoro-1H-benzimidazol-2-yl)-4-fluoro-3-piperidinamine] the IC50 was greater than 3750 nM.
Compound `CN(C)C(=O)Cn1c(N2CC[C@@H](F)[C@H](N)C2)nc2c(F)cc(F)cc21` [Example 565, 2-(2-((3R,4R)-3-amino-4-fluoropiperidin-1-yl)-4,6-difluoro-1H-benzo[d]imidazol-1-yl)-N,N-dimethylacetamide] has an IC50 of 32.2 nM.
Compound `CN[C@@H]1CCCN(c2nc3ccccc3n2Cc2ccc(C#N)cn2)C1` [Example 117, 6-((2-((3R)-3-(methylamino)-1-piperidinyl)-1H-benzimidazol-1-yl)methyl)-3-pyridinecarbonitrile] has an IC50 greater than 3750 nM.
With `N[C@@H]1CCCN(c2nc3ccccc3n2Cc2ccc(F)cc2F)C1` [Example 389, (R)-1-(1-(2,4-difluorobenzyl)-1H-benzo[d]imidazol-2-yl)piperidin-3-amine] the IC50 was 4580 nM.
`N#Cc1ccc(Cn2c(N3CCC[C@H](N)C3)nc3ccccc32)cc1` [Example 167, (S)-4-((2-(3-aminopiperidin-1-yl)-1H-benzo[d]imidazol-1-yl)methyl)benzonitrile] showed an IC50 of 1.97 nM.
`N[C@@H]1CN(c2nc3cc(F)c(F)cc3n2CC(=O)N2C[C@H]3C[C@H]3C2)CC[C@H]1F` [Example 607, 2-(2-((3R,4R)-3-amino-4-fluoropiperidin-1-yl)-5,6-difluoro-1H-benzo[d]imidazol-1-yl)-1-((1R,5S)-3-azabicyclo[3.1.0]hexan-3-yl)ethanone] showed an IC50 of 14.3 nM.
With `N#Cc1ccc(Cn2c(N3CCC(F)(F)[C@H](N)C3)nc3ccccc32)cc1` [Example 154, (R)-4-((2-(3-amino-4,4-difluoropiperidin-1-yl)-1H-benzo[d]imidazol-1-yl)methyl)benzonitrile] the IC50 was 3.06 nM.
`N#CC1CN(C(=O)Cn2c(N3CC[C@@H](F)[C@H](N)C3)nc3cc(F)c(F)cc32)C1` [Example 426, 1-(2-(2-((3R,4R)-3-amino-4-fluoropiperidin-1-yl)-5,6-difluoro-1H-benzo[d]imidazol-1-yl)acetyl)azetidine-3-carbonitrile] was tested, and the IC50 was 933 nM.
For `CS(=O)(=O)c1ccc(Cn2c(N3CC[C@@H](F)[C@H](N)C3)nc3cc(F)c(F)cc32)nc1` [Example 562, (3R,4R)-1-(5,6-difluoro-1-((5-(methylsulfonyl)pyridin-2-yl)methyl)-1H-benzo[d]imidazol-2-yl)-4-fluoropiperidin-3-amine], the IC50 was 20.8 nM.
`N[C@@H]1CCCN(c2nc3ccccc3n2Cc2c(Cl)cccc2Cl)C1` [Example 373, (R)-1-(1-(2,6-dichlorobenzyl)-1H-benzo[d]imidazol-2-yl)piperidin-3-amine] gave an IC50 of 5850 nM.
`N#Cc1ccc(Cn2c(N3CC[C@](O)(CN)C3)nc3ccccc32)cc1` [Example 177, (S)-4-((2-(3-(aminomethyl)-3-hydroxypyrrolidin-1-yl)-1H-benzo[d]imidazol-1-yl)methyl)benzonitrile 2,2,2-trifluoroacetate] was tested, and the IC50 was 1540 nM.
Work on `CC(F)(F)c1ccc(Cn2c(N3CC[C@@H](F)[C@H](N)C3)nc3cc(F)c(F)cc32)cc1` [Example 344, (3R,4R)-1-(1-(4-(1,1-difluoroethyl)benzyl)-5,6-difluoro-1H-benzimidazol-2-yl)-4-fluoro-3-piperidinamine] yielded an IC50 of 85.3 nM.
Compound `N#Cc1ccc2c(c1)nc(N1CC[C@@H](F)[C@H](N)C1)n2Cc1cnc(C#N)cn1` [Example 250, 2-((3R,4R)-3-amino-4-fluoro-1-piperidinyl)-1-((5-cyano-2-pyrazinyl)methyl)-1H-benzimidazole-5-carbonitrile] has an IC50 of 78.5 nM.
`N#Cc1ccc(Cn2c(N3CCC4(CCCC4N)C3)nc3ccccc32)cc1` (stereo not shown) [Example 168, 4-((2-(6-amino-2-azaspiro[4.4]nonan-2-yl)-1H-benzo[d]imidazol-1-yl)methyl)benzonitrile] was tested, and the IC50 was 1600 nM.
`N[C@@H]1CN(c2nc3cc(F)c(F)cc3n2Cc2cccc(OC(F)(F)F)c2)CC[C@H]1F` [Example 364, (3R,4R)-1-(5,6-difluoro-1-(3-(trifluoromethoxy)benzyl)-1H-benzimidazol-2-yl)-4-fluoro-3-piperidinamine] showed an IC50 of 1020 nM.
Compound `N[C@@H]1CCCN(c2nc3ccccc3n2Cc2cc(-c3cccc(Cl)c3)no2)C1` [Example 392, (R)-1-(1-((3-(3-chlorophenyl)isoxazol-5-yl)methyl)-1H-benzo[d]imidazol-2-yl)piperidin-3-amine] has an IC50 of 2240 nM.
`N[C@@H]1CN(c2nc3ccc(F)cc3n2Cc2nnc(C(F)F)s2)CC[C@H]1F` [Example 573, (3R,4R)-1-(1-((5-(difluoromethyl)-1,3,4-thiadiazol-2-yl)methyl)-6-fluoro-1H-benzo[d]imidazol-2-yl)-4-fluoropiperidin-3-amine] was tested, and the IC50 was 117 nM.
With `CC(=O)NC1CCCN(C(=O)Cn2c(N3CC[C@@H](F)[C@H](N)C3)nc3cc(F)c(F)cc32)C1` (stereo partly drawn) [Example 535, N-(1-(2-(2-((3R,4R)-3-amino-4-fluoropiperidin-1-yl)-5,6-difluoro-1H-benzo[d]imidazol-1-yl)acetyl)piperidin-3-yl)acetamide] the IC50 was greater than 3750 nM.
For `N[C@@H]1CN(c2nc3ccc(F)cc3n2CC(=O)N(CC(F)(F)F)[C@H]2CCOC2)CC[C@H]1F` [Example 667, 2-(2-((3R,4R)-3-amino-4-fluoropiperidin-1-yl)-6-fluoro-1H-benzo[d]imidazol-1-yl)-N-((S)-tetrahydrofuran-3-yl)-N-(2,2,2-trifluoroethyl)acetamide], the IC50 was 745 nM.
For `N[C@@H]1CN(c2nc3cc(F)c(F)cc3n2Cc2ccc(Cl)cc2F)CC[C@H]1F` [Example 358, (3R,4R)-1-(1-(4-chloro-2-fluorobenzyl)-5,6-difluoro-1H-benzimidazol-2-yl)-4-fluoro-3-piperidinamine], the IC50 was 6.47 nM.
